Source: ChEMBL document CHEMBL3638993, “Dihydrofolate reductase inhibitors” (2014)

Experiments:
[1] = biological target: T1, Dihydrofolate reductase (Homo sapiens, UniProt P00374); experiment: (§1) Inhibition Assay: Antibacterial activity as measured by the minimal inhibitory concentrations (MIC) and minimal bactericidal concentrations of compounds are well known (see., e.g., National Committee for Clinical Laboratory Standards 2000 Performance standards for antimicrobial disk susceptibility tests: approved standard, 7th ed. M2-A7, vol. 20, no. 1, Committee for Clinical Laboratory Standards, Wayne, Pa.).
T1 sequence (P00374 whole entry): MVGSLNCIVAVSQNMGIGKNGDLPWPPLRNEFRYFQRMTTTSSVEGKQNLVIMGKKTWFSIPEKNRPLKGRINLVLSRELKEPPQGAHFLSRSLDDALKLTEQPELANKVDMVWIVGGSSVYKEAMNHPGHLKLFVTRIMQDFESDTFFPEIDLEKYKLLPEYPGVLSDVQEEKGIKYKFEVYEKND

[2] = biological target: Dihydrofolate reductase (Staphylococcus aureus, UniProt P0A017); experiment: as §1
Chain of Dihydrofolate reductase (Staphylococcus aureus, UniProt P0A017) (P0A017 whole entry): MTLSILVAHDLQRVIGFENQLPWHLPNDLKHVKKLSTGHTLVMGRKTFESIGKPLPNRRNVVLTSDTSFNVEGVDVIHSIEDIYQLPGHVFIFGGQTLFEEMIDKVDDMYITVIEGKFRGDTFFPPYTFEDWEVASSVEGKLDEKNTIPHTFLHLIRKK

**Q.** What does the source list for `Cc1c(C(=O)OC(C)(C)C)nc(-c2cccs2)n1-c1ccc2c(N)nc(N)nc2c1`?
**A.** Ki [1]: 1.91 µM; Ki [2]: 0.0002 µM
